Patent US20250177396A1, “POLO-LIKE KINASE 4 (PLK4) INHIBITORS, PHARMACEUTICAL COMPOSITIONS, METHODS OF PREPARATION AND USES THEREOF” (Repare Therapeutics Inc., priority 2022, published 2025)

The molecules below were run against T1, PLK4 (Homo sapiens, UniProt O00444) (assay: PLK4 NanoBRET target engagement assay). Conditions: HEK293 T cells transfected with PLK4 NanoLuc fusion vector; K-5 tracer; 2 hrs incubation.
T1 construct: expressed in transfected cells; host or cells: HEK293 T cells (ATCC CRL-3216)
T1 sequence (O00444 1-970): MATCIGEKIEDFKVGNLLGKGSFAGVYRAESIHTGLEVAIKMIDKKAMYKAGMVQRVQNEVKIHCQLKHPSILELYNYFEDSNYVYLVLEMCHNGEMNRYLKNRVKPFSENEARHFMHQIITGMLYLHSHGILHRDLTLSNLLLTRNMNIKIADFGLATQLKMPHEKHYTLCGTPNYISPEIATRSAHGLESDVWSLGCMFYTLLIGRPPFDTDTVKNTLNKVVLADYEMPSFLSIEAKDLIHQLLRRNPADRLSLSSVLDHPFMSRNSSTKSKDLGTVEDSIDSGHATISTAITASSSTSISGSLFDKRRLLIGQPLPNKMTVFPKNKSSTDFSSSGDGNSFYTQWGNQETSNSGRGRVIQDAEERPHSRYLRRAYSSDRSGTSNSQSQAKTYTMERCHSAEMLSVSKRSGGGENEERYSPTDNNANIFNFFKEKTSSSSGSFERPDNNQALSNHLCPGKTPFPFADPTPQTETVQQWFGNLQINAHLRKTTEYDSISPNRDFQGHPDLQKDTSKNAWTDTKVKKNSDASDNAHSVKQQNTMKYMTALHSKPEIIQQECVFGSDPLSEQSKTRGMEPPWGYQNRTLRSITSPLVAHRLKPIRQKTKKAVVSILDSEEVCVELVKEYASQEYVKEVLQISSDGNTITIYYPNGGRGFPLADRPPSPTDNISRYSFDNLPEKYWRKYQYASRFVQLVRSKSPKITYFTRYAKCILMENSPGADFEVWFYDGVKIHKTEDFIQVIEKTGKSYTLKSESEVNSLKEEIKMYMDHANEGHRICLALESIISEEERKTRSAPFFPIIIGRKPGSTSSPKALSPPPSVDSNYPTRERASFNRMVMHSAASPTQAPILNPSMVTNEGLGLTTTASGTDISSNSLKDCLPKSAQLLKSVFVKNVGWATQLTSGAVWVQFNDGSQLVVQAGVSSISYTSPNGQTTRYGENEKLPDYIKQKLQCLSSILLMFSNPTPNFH
Format: binding
Method in brief: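 HEK293T cells transiently expressing PLK4-NanoLuc, plated at 17000 cells/well with K-5 tracer and compound, incubated 2 h at 37 °C/5% CO2. After substrate/inhibitor mix, 610/450 nm emission ratio ×1000 gave mBRET; IC50 from 4-parameter fit.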

Row | IC50 [nM] | SMILES
1 | 4 | COCCn1ncc(-c2nc(N(C)c3c(F)cc(S(C)(=O)=O)cc3F)nc(Nc3cc(C)[nH]n3)c2C2CC2)c1C [Compound 161]
2 | 11 | Cc1cc(Nc2nc(N(C)c3c(F)cc(S(C)(=O)=O)cc3F)nc(-c3cc(C(F)F)n(C)n3)c2C2CC2)n[nH]1 [Compound 163]
3 | 8 | COCc1nc(-c2nc(N(C)c3c(F)cc(S(C)(=O)=O)cc3F)nc(Nc3cc(C)[nH]n3)c2C2CC2)cn1C [Compound 164]
4 | 4 | Cc1cc(Nc2nc(N(C)c3c(F)cc(S(C)(=O)=O)cc3F)nc(-c3cn(C)c(C(F)F)n3)c2C2CC2)n[nH]1 [Compound 165]
5 | 4 | COCc1cc(-c2nc(N(C)c3c(F)cc(S(C)(=O)=O)cc3F)nc(Nc3cc(C)[nH]n3)c2C2CC2)nn1C [Compound 166]
6 | 30 | Cc1cc(Nc2nc(N(C)c3c(F)cc(S(C)(=O)=O)cc3F)nc(-c3cn(C)c(CO)n3)c2C2CC2)n[nH]1 [Compound 167]
7 | 41 | Cc1cc(Nc2nc(N(C)c3c(F)cc(S(C)(=O)=O)cc3F)nc(-c3nc(C)[nH]c3C)c2C2CC2)n[nH]1 [Compound 168]
8 | 4 | Cc1cc(Nc2nc(N(C)c3c(F)cc(S(C)(=O)=O)cc3F)nc(-c3ccn(CCO)n3)c2C2CC2)n[nH]1 [Compound 169]
9 | 11 | Cc1cc(Nc2nc(N(C)c3c(F)cc(S(C)(=O)=O)cc3F)nc(-c3cnn(CC(=O)N(C)C)c3)c2C2CC2)n[nH]1 [Compound 170]
10 | 23 | CNC(=O)Cn1cc(-c2nc(N(C)c3c(F)cc(S(C)(=O)=O)cc3F)nc(Nc3cc(C)[nH]n3)c2C2CC2)cn1 [Compound 171]
11 | 6 | Cc1cc(Nc2nc(N(C)c3c(F)cc(S(C)(=O)=O)cc3F)nc(-c3cnn(CCS(C)(=O)=O)c3)c2C2CC2)n[nH]1 [Compound 172]
12 | 360 | Cc1cc(Nc2nc(N(C)c3c(F)cc(S(C)(=O)=O)cc3F)nc(-c3ncn(C)c3C#N)c2C2CC2)n[nH]1 [Compound 173]
13 | 4 | Cc1cc(Nc2nc(N(C)c3c(F)cc(S(C)(=O)=O)cc3F)nc(-c3cnn4c3CCC4)c2C2CC2)n[nH]1 [Compound 175]
14 | 13 | Cc1cc(Nc2nc(N(C)c3c(F)cc(S(C)(=O)=O)cc3F)nc(-c3cnn4c3CC(C)(C)C4)c2C2CC2)n[nH]1 [Compound 176]
15 | 38 | Cc1cc(Nc2nc(N(C)c3c(F)cc(S(C)(=O)=O)cc3F)nc(-c3cn(C(CO)CO)nc3C)c2C2CC2)n[nH]1 [Compound 177]
16 | 11 | Cc1cc(Nc2nc(N(C)c3c(F)cc(S(C)(=O)=O)cc3F)nc(-c3cc(CO)n(C)n3)c2C2CC2)n[nH]1 [Compound 178]
17 | 260 | Cc1cc(Nc2nc(N(C)c3c(F)cc(S(C)(=O)=O)cc3F)nc(C(N)=O)c2C2CC2)n[nH]1 [Compound 179]
18 | 4 | Cc1cc(Nc2nc(N(C)c3c(F)cc(S(C)(=O)=O)cc3F)nc(-c3cn(C4COC4)nc3C)c2C2CC2)n[nH]1 [Compound 180]
19 | 29 | Cc1cc(Nc2nc(N(C)c3c(F)cc(S(C)(=O)=O)cc3F)nc(-c3cnn(C)c3N)c2C2CC2)n[nH]1 [Compound 181]
20 | 11 | Cc1cc(Nc2nc(N(C)c3c(F)cc(S(C)(=O)=O)cc3F)nc(-c3cnn4c3COCC4)c2C2CC2)n[nH]1 [Compound 182]
21 | 13 | Cc1cc(Nc2nc(N(C)c3c(F)cc(S(C)(=O)=O)cc3F)nc(-c3cnc4n3CCC4)c2C2CC2)n[nH]1 [Compound 183]
22 | 33 | Cc1cc(Nc2nc(N(C)c3c(F)cc(S(C)(=O)=O)cc3F)nc(N3CCN(C)C(=O)C3)c2C2CC2)n[nH]1 [Compound 184]
23 | 21 | Cc1cc(Nc2nc(N(C)c3c(F)cc(S(C)(=O)=O)cc3F)nc(-c3cn(C4CCOCC4)nc3C)c2C2CC2)n[nH]1 [Compound 185]
24 | 17 | Cc1cc(Nc2nc(N(C)c3c(F)cc(S(C)(=O)=O)cc3F)nc(-c3cnn(C4CS(=O)(=O)C4)c3)c2C2CC2)n[nH]1 [Compound 186]

Further lines, the molecule ahead of its results:

Row | SMILES | IC50 [nM]
25 | CCn1cnc(-c2nc(N(C)c3c(F)cc(S(C)(=O)=O)cc3F)nc(Nc3cc(C)[nH]n3)c2C2CC2)c1 [Compound 136] | 5
26 | Cc1cc(Nc2nc(N(C)c3c(F)cc(S(C)(=O)=O)cc3F)nc(-c3cn(C(C)C)cn3)c2C2CC2)n[nH]1 [Compound 137] | 3
27 | Cc1cc(Nc2nc(N(C)c3c(F)cc(S(C)(=O)=O)cc3F)nc(C3CC3)c2C2CC2)n[nH]1 [Compound 138] | 160
28 | COCCn1cnc(-c2nc(N(C)c3c(F)cc(S(C)(=O)=O)cc3F)nc(Nc3cc(C)[nH]n3)c2C2CC2)c1 [Compound 139] | 4
29 | Cc1cc(Nc2nc(N(C)c3c(F)cc(S(C)(=O)=O)cc3F)nc(-c3cn4c(n3)CCC4)c2C2CC2)n[nH]1 [Compound 140] | 3
30 | Cc1cc(Nc2nc(N(C)c3c(F)cc(S(C)(=O)=O)cc3F)nc(-c3cnn(CCO)c3)c2C2CC2)n[nH]1 [Compound 141] | 9
31 | Cc1cc(Nc2nc(N(C)c3c(F)cc(S(C)(=O)=O)cc3F)nc(-c3nccn3C)c2C2CC2)n[nH]1 [Compound 142] | 13
32 | Cc1cc(Nc2nc(N(C)c3c(F)cc(S(C)(=O)=O)cc3F)nc(-c3cn(C(F)F)nc3C)c2C2CC2)n[nH]1 [Compound 143] | 12
33 | Cc1cc(Nc2nc(N(C)c3c(F)cc(S(C)(=O)=O)cc3F)nc(-c3cc(C#N)n(C)n3)c2C2CC2)n[nH]1 [Compound 145] | 18
34 | Cc1cc(Nc2nc(N(C)c3c(F)cc(S(C)(=O)=O)cc3F)nc(-c3cccnn3)c2C2CC2)n[nH]1 [Compound 146] | 21
35 | COc1nn(C)cc1-c1nc(N(C)c2c(F)cc(S(C)(=O)=O)cc2F)nc(Nc2cc(C)[nH]n2)c1C1CC1 [Compound 147] | 5
36 | Cc1cc(Nc2nc(N(C)c3c(F)cc(S(C)(=O)=O)cc3F)nc(-c3cn(C4CC4)cn3)c2C2CC2)n[nH]1 [Compound 148] | 4
37 | Cc1cc(Nc2nc(N(C)c3c(F)cc(S(C)(=O)=O)cc3F)nc(-c3cn(C)nc3C(F)F)c2C2CC2)n[nH]1 [Compound 149] | 6
38 | COCCn1ccc(-c2nc(N(C)c3c(F)cc(S(C)(=O)=O)cc3F)nc(Nc3cc(C)[nH]n3)c2C2CC2)n1 [Compound 150] | 15
39 | Cc1cc(Nc2nc(N(C)c3c(F)cc(S(C)(=O)=O)cc3F)nc(-c3oc(C)nc3C)c2C2CC2)n[nH]1 [Compound 151] | 7
40 | [2H]C([2H])([2H])n1cc(-c2nc(N(C)c3c(F)cc(S(C)(=O)=O)cc3F)nc(Nc3cc(C)[nH]n3)c2C2CC2)c(C)n1 [Compound 152] | 5
41 | [2H]C([2H])([2H])n1ncc(-c2nc(N(C)c3c(F)cc(S(C)(=O)=O)cc3F)nc(Nc3cc(C)[nH]n3)c2C2CC2)c1C [Compound 153] | 8
42 | COc1c(-c2nc(N(C)c3c(F)cc(S(C)(=O)=O)cc3F)nc(Nc3cc(C)[nH]n3)c2C2CC2)cnn1C [Compound 154] | 10
43 | Cc1cc(Nc2nc(N(C)c3c(F)cc(S(C)(=O)=O)cc3F)nc(-c3ccn(C(F)F)n3)c2C2CC2)n[nH]1 [Compound 155] | 10
44 | Cc1cc(Nc2nc(N(C)c3c(F)cc(S(C)(=O)=O)cc3F)nc(-c3cnc(C)o3)c2C2CC2)n[nH]1 [Compound 156] | 11
45 | Cc1cc(Nc2nc(N(C)c3cc(F)c(S(C)(=O)=O)cc3F)nc(-c3cn(C)nc3C)c2C2CC2)n[nH]1 [Compound 159] | 7
46 | COCCn1cc(-c2nc(N(C)c3c(F)cc(S(C)(=O)=O)cc3F)nc(Nc3cc(C)[nH]n3)c2C2CC2)c(C)n1 [Compound 160] | 2
